The experiment has as its target T1, MAPKAPK5 (PRAK) (Homo sapiens, UniProt Q8IW41).
T1 construct: purchased Thermo Fisher Scientific (Life Technologies) SelectScreen
Put plainly: SelectScreen Z'LYTE. The experiment is classed as biochemical. A digest of the protocol: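 NU5455 was profiled across the SelectScreen Broad panel of kinase activity and binding assays. Z'LYTE reactions such as CSF1R ran at apparent Km ATP, while the Adapta CAMK1 assay used ATP listed as 10. Values are given as percent.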

The values below come from paper PMC6934184, “Selective DNA-PKcs inhibition extends the therapeutic index of localized radiotherapy and chemotherapy” (The Journal of Clinical Investigation, 2019).

Broadly, the inhibition is the percentage by which the read-out fell short of the control.

T1 sequence (Q8IW41 whole entry): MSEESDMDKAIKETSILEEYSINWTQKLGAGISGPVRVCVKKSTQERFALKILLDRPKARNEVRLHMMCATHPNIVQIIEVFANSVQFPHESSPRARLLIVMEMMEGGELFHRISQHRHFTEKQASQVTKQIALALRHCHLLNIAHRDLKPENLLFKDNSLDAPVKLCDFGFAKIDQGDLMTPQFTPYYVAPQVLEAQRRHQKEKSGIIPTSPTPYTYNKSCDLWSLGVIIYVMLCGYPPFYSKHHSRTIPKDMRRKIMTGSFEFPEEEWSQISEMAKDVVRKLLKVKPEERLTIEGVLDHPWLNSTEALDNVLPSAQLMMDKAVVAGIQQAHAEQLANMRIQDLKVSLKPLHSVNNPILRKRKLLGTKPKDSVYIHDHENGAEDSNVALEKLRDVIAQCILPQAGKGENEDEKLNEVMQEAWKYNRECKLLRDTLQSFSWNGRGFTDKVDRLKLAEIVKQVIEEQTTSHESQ

For `CN(C(=O)CN1CCOCC1)c1ccc2sc3c(-c4cccc5c(=O)cc(N6CC7CCC(C6)O7)oc45)cccc3c2c1` [NU5455], 1 µM produced 0.6% inhibition.
